Read-outs that look alike come from different tables or passages of the source.
Assays:
[1] = tested on: M-NFS-60 mouse myeloid leukemia lymphocytes; assay: CSF-1R-related cell proliferation experiment (Cell Titer Glo), M-NFS-60 cells with M-CSF; format: cell-based; conditions: Lymphocyte, 72 h, 3 days, CTG, * = average of multiple tests
Description: C. CSF-1R-Related Cell Proliferation Experiment
Functional effects of compounds on cell proliferation were evaluated by using Cell Titer Glo (CTG) study in the present invention. M-NFS-60 mouse myeloid leukemia lymphocytes (cat. No. CCBJ078) from National Institutes For Food and Drug Control were cultured in the incubator under conditions of RPMI 1640 (Gibco, cat. No. 11875-119), 10% fetal bovine serum (Gibco, 10099-141), human 10 ng/mL M-CSF macrophage colony-stimulating factor (R&D, cat. No. MVN0915101), 37° C., and 5% CO2. Since ATP is an index for viable cell metabolism, CTG (Promega, #G7573) reagent is a homogeneous detection method for detecting the number of viable cells in the culture by quantifying ATP. Therefore, compound-mediated inhibition for cell proliferation/survival was evaluated by quantifying ATP content in cells, and the specific experimental process was as follows:
1. The cells were plated into a tissue-culture-medium-treated 96-well plate (Costar #3904) with 5,000 cells/well/80 μL fresh culture medium;
2. 24 hours later, 10 μL culture medium containing testing compound with 10-fold of final concentration was added to each well;
3. 10 μL of culture medium containing M-CSF with 10-fold of the final concentration was then added to each well;
4. dosage effect was evaluated by testing the 3-fold serial dilutions of the compound;
(§1) 5. after the cells were incubated for 3 days at 37° C. and 5% CO2, the inhibition on cell survival was quantified after 50 μL of CTG was added and the luminescence assay was performed;
(§2) 6. the compound concentration leading to half maximal inhibitory (IC50) and the compound concentration leading to absolute half maximal inhibitory (Absolute IC50) were measured by a plate reader (M1000, Tecan) and a four-parameter curve fit in Graphpad Prism 7.

PDGFRA kinase = PDGFRA kinase (Homo sapiens, UniProt P16234); assay: PDGFRA in vitro biochemical kinase study (Caliper EZ Reader); conditions: Caliper mobility shift; read-out: Enzymatic experiment PDGFRA IC50
Sequence of PDGFRA kinase (P16234 24-1089): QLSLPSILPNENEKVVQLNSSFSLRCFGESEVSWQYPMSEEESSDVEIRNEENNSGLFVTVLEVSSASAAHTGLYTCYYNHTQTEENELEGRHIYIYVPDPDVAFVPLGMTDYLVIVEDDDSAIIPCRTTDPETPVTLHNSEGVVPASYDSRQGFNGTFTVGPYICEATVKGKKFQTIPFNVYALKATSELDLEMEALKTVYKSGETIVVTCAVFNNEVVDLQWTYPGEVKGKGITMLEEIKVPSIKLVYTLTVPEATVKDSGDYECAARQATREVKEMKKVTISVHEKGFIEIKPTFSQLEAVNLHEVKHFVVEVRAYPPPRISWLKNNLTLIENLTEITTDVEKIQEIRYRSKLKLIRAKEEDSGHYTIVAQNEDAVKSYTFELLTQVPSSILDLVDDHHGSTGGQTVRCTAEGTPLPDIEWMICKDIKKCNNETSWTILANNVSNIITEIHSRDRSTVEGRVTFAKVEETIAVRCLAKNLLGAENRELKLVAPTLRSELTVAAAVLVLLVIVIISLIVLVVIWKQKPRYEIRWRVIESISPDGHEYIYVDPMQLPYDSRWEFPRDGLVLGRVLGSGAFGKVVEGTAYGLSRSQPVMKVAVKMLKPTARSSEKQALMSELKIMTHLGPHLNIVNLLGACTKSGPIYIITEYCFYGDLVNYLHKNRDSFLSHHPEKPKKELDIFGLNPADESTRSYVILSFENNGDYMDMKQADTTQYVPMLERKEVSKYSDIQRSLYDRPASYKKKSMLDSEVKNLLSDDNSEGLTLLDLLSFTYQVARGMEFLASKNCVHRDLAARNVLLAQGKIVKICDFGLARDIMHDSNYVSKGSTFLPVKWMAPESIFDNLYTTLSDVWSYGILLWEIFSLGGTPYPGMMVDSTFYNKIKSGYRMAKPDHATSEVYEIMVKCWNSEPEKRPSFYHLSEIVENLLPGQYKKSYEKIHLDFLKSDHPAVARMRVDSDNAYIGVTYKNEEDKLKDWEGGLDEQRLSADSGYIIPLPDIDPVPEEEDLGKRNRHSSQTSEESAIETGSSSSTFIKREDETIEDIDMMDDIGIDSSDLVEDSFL
Description: (§3) B. KIT/PDGFRA In Vitro Biochemical Kinase Study
(§4) 1. Preparation of 1-Fold Kinase Buffer and Stop Solution
(§5) 1.2 stop solution: 100 mM HEPES, pH 7.5, 0.015% Brij-35, 0.2% Coating Reagent #3, 50 mM EDTA
(§6) 2. Preparation of Compound Solution
(§7) 2.1 Dilution of Compound Solution
(§8) 1) The final concentration of the compound solution was 40 μM, and the concentration of the prepared stock solution was 50 times of the final concentration, i.e., 2 mM.
(§9) 2) 80 μL of 100% DMSO was added to the second well of the 96-well plate, then 20 μL of 10 mM compound solution was added, and thereby 2 mM compound solution was prepared, 60 μL of 100% DMSO was added to other wells, 20 μL of compound was taken from the second well, added to the third well and diluted by 4 times. This serial 4-time dilution was conducted in sequence for the total of 10 concentrations.
(§10) 2.2 5-Fold Compound Solution Transferred to a Reaction Plate
(§11) 1) 10 μL of solution was taken from each well of the above 96-well plate and added to another 96-well plate, and 90 μL of kinase buffer was added.
(§12) 2) 5 μL of solution was taken from the above 96-well plate and added to a 384-well reaction plate.
(§13) 1) KIT/PDGFRA kinase was added to the 1-fold kinase buffer solution to obtain a 2.5-fold kinase solution.
(§14) 2) FAM-labeled polypeptide and ATP were added to the 1-fold kinase buffer solution to obtain a 2.5-fold substrate solution.
(§15) 3) 10 μL of 2.5-fold kinase solution was added to the 384-well reaction plate, which already contained 5 μL of 5-fold compound in 10% DMSO. And the mixed solution was incubated at room temperature for 10 min.
(§16) 4) 10 μL of 2.5-fold substrate solution was added to the 384-well reaction plate.
(§17) 5) Kinase reaction and termination: the mixed solution was incubated at 28° C. for a certain period of time, and 25 μL of stop solution was added to stop the reaction.
(§18) 2.4 Data Reading of Caliper EZ Reader II
(§19) 2.5 Calculation of Percent Inhibition and IC50
(§20) 1) Percent conversion data were copied from the Caliper EZ Reader. […]

KIT kinase = KIT kinase (Homo sapiens, UniProt P10721); assay: KIT in vitro biochemical kinase study (Caliper EZ Reader); conditions: Caliper mobility shift; read-out: Enzymatic experiment KIT IC50
Sequence of KIT kinase (P10721 26-976): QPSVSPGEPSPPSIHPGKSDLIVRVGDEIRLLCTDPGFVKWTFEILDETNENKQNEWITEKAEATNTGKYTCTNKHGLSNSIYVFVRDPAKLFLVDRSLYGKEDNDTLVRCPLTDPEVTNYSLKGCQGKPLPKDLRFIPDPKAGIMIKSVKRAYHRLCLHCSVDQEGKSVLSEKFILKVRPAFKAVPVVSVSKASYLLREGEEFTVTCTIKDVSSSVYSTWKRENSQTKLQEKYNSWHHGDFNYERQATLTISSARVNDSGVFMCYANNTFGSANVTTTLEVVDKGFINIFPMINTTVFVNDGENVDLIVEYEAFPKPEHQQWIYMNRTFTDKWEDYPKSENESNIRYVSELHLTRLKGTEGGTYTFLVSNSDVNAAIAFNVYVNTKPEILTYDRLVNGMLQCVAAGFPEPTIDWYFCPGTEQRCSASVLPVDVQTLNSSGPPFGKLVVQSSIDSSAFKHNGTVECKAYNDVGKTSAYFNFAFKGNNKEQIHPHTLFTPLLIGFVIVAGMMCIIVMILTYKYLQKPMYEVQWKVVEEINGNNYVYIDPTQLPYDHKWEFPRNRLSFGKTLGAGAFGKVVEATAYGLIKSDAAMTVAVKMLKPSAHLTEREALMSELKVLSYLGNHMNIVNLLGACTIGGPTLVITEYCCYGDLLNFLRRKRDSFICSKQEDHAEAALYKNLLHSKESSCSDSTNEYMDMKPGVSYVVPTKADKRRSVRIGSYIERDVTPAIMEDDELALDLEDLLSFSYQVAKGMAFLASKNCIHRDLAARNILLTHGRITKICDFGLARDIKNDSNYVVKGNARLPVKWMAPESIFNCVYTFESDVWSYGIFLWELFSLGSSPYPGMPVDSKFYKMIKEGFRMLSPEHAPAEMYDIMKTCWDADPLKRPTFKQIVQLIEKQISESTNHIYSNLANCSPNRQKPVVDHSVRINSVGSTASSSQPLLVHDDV
Description: as §3, §4, §5, §6, §7, §8, §9, §10, §11, §12, §13, §14, §15, §16, §17, §18, §19, §20

CSF-1R = CSF-1R (Homo sapiens, UniProt P07333); assay: CSF-1R in vitro biochemical kinase study (ADP-Glo assay); conditions: 500 μM ATP, * = average of multiple tests, read-out: Enzymatic experiment CSF1R IC50
Sequence of CSF-1R (P07333 20-972): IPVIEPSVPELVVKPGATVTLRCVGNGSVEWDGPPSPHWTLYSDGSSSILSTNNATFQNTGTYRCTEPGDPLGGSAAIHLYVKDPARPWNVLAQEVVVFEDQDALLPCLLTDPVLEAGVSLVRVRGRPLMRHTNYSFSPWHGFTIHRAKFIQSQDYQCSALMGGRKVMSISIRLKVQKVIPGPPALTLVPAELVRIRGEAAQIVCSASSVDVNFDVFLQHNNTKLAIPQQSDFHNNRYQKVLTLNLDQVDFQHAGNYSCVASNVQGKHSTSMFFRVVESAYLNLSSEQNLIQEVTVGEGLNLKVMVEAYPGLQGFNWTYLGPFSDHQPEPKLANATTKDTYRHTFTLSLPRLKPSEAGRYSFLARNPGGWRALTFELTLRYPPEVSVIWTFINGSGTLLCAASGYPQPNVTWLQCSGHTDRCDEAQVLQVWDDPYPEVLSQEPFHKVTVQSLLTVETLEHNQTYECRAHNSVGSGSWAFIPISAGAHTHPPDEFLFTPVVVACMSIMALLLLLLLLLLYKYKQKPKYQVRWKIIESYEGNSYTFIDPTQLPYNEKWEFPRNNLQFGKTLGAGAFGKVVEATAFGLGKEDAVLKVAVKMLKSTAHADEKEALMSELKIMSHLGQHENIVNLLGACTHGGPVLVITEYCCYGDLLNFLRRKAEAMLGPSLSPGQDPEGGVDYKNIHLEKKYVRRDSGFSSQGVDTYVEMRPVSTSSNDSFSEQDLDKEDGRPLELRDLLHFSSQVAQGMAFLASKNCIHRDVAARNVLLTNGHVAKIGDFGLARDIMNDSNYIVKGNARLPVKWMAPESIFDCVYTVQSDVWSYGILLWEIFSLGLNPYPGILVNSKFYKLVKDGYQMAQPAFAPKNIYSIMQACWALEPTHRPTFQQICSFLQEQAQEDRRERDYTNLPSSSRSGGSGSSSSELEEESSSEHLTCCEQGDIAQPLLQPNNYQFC
Description: A. CSF-1R In Vitro Biochemical Kinase Study
In the present invention, the inhibitory activity of compounds against the CSF-1R activity was determined by using CSF-1R ADP-Glo assay. The compound-mediated inhibition effect was achieved by inhibiting the production of ADP from consumption of ATP, and the activities of compounds were evaluated by using the ADP-Glo kit (Promega, cat. No. V9101). The specific experimental process was as follows:
1. The kinase reaction performed in the present invention was carried out in a 384-well plate (Perkinelmer, cat. No. 6007290), 3.95 nM of CSF-1R, 500 μM of ATP, and 0.2 mg/mL of polypeptide (Poly (Glu4, Try1), Sigma, cat. No. P0275) were respectively weighed and added to each well:
2. following reagents were then added to each well to reach the final reaction system: 40 mM Tris, pH 7.5, 20 mM MgCl2, 0.01% Triton X-100, 0.1 mg/mL BSA, 2.5 mM DTT, and 0.1% DMSO;
3. the reaction was conducted at 30° C. for 60 min;
4. then an equal volume of stop solution (ADP-Glo) was added to the kinase reaction system;
5. the mixed solution was incubated at 25° C. for 60 min, and the kinase reaction was then terminated;
6. a two-fold volume of detection reagent was then added to each well;
7. the mixed solution was incubated at 25° C. for 30 min;
8. the compound IC50 value was measured by using a plate reader (Tecan, M1000) and a four-parameter curve was generated in Graphpad Prism.

[2] = tested on: MV-4-11 human acute monocytic leukemia cells; assay: Cell proliferation (Cell Titer Glo), MV-4-11 cells (FLT3); format: cell-based; conditions: MV4-11, 72 h, 3 days, CTG, * = average of multiple tests, read-out: Cytological experiment FLT3 IC50
Description: (§21) D. CSF-1R-Related Cell Proliferation Experiment
(§22) Functional effects of compounds on the proliferation of several cell lines were evaluated by Cell Titer Glo (CTG) studies in the present invention, and effects of the compounds on the proliferation of different cells were evaluated to determine the selectivity degree of the compounds. In the experiment, M-07e human cytomegalic leukemia cells (cat. No. CBP60791) from Nanjing Kebai Biotechnology Co., Ltd. were cultured in an incubator under conditions of RPMI1640 (Gibco, cat. No. 11875-119), 20% fetal bovine serum (Gibco, 10099-141), human 10 ng/mL GM-CSF granulocyte macrophage colony-stimulating factors (R&D, cat. No. 215-GM-010), 37° C., and 5% CO2; and Kasumi-1 human acute myeloblastic leukemia cells (cat. No. CBP60524) were cultured in an incubator under conditions of RPMI1640 (Gibco, cat. No. 11875-119), 20% fetal bovine serum (Gibco, 10099-141), 37° C., and 5% CO2: NCI-H1703 human non-small cell lung squamous carcinoma cells (cat. No. CBP60115) were cultured in an incubator under conditions of RPMI1640 (Gibco, cat. No. 11875-119), 10% fetal bovine serum (Gibco, 10099-141), 37° C., and 5% CO2; MV-4-11 human acute monocytic leukemia cells (cat. No. CBP60522) were cultured in an incubator under conditions of IMDM (Invitrogen, cat. No. 12440053), 20% fetal bovine serum (Gibco, 10099-141), 37° C., and 5% CO2. Since ATP is an index for viable cell metabolism, CTG (Promega, #G7573) reagent is a homogeneous detection method for detecting the number of viable cells in the culture by quantifying ATP. Therefore, compound-mediated inhibition for cell proliferation/survival was evaluated by quantifying ATP content in cells, and the specific experimental process was as follows.
III) MV-4-11 Human Acute Monocytic Leukemia Cell
1. The cells were inoculated into a tissue-culture-medium-treated 96-well plate (Costar #3904) with 5000 cells/well/90 μL fresh culture medium, and cultured for 24 hrs:
2. the next day, 10 μL of culture medium containing testing compound with 10-fold of final concentration was added to each well;
(§23) 3. the dosage effect was evaluated by testing 3-fold serial dilutions of the compound, which started from 18 μM;
4. after the cells were incubated for 3 days at 37° C. and 5% CO2, the inhibition on cell survival was quantified after 50 μL of CTG was added and the luminescence assay was performed;
(§24) 5. the compound concentration leading to half maximal inhibitory (IC50) and the compound concentration leading to absolute half maximal inhibitory (Absolute IC50) were measured by a plate reader (M1000, Tecan) and a four-parameter curve fit in Graphpad Prism 7.

[3] = tested on: M-07e human cytomegalic leukemia cells; assay: Cell proliferation (Cell Titer Glo), M-07e cells with SCF (KIT); format: cell-based; conditions: 72 h, 3 days, CTG, * = average of multiple tests, read-out: Cytological experiment KIT IC50
Description: as §21, §22
I) M-07e Human Cytomegalic Leukemia Cell:
1. The cells were plated into a tissue-culture-medium-treated 96-well plate (Costar #3904) with 3500 cells/well/80 μL fresh culture medium, and cultured for 24 hrs;
(§25) 2. the next day, 10 μL of culture medium containing testing compound with 10-fold of final concentration was added to each well:
3. 10 μL of culture medium containing SCF recombinant human stem cell factor (R&D, cat. No. 7466-SC-010) with 10-fold of the final concentration was then added to each well;
4. the dosage effect was evaluated by testing 4-fold serial dilutions of the compound, which started from 18 μM;
as §1, §2

[4] = tested on: NCI-H1703 human non-small cell lung squamous carcinoma cells; assay: Cell proliferation (Cell Titer Glo), NCI-H1703 cells (PDGFRA); format: cell-based; conditions: 72 h, 3 days, CTG, * = average of multiple tests, read-out: Cytological experiment PDGFRA IC50
Description: as §21, §22
II) NCI-H1703 Human Non-Small Cell Lung Squamous Carcinoma Cell
1. The cells were inoculated into a tissue-culture-medium-treated 96-well plate (Costar #3904) with 5000 cells/well/90 μL fresh culture medium, and cultured for 24 hrs;
as §25, §23
4. after the cells were incubated for 3 days at 37° C. and 5% CO2, the inhibition on cell survival was quantified after 50 μL of CTG was added and the luminescence assay was performed:
as §24

[5] = read-out: Cytological experiment CSF1R IC50
[6] = absolute half maximal inhibition, read-out: Cytological experiment CSF-1R Absolute IC50

Structure (SMILES) | IC50 [1, 5] [nM] | IC50 [1, 6] [nM] | IC50 (PDGFRA kinase) [nM] | IC50 (KIT kinase) [nM] | IC50 (CSF-1R) [nM] | IC50 [2] [nM] | IC50 [3] [nM] | IC50 [4] [nM]
Cc1nc(-c2cnc3n(c2=O)CCCN3C(C)C)ccc1Oc1ccnc(-c2cnn(C)c2)c1 [Example 5, 9-isopropyl-3-(6-methyl-5-((2-(1-methyl-1H-pyrazol-4-yl)pyridin-4-yl)oxy)pyridin-2-yl)-6,7,8,9-tetrahydro-4H-pyrimido[1,2-a]pyrimidin-4-one] | 127 | 114 | 226 | 22.6 | 95.2 |  |  | 
Cc1nc(-c2cnc3n(c2=O)CCCN3C)ccc1Oc1ccnc(-c2cn[nH]c2)c1 [Example 7, 3-(5-((2-(1H-pyrazol-4-yl)pyridin-4-yl)oxy)-6-methylpyridin-2-yl)-9-methyl-6,7,8,9-tetrahydro-4H-pyrimido[1,2-a] pyrimidin-4-one] | 498 | 488 |  |  | 84.2 | > 18000 | > 1120 | > 2000
Cc1nc(-c2cnc3n(c2=O)CCCN3C2CCC2)ccc1Oc1ccnc(-c2cnn(C)c2)c1 [Example 9, 9-cyclobutyl-3-(6-methyl-5-((2-(1-methyl-1H-pyrazol-4-yl)pyridin-4-yl)oxy)pyridin-2-yl)-6,7,8,9-tetrahydro-4H-pyrimido[1,2-a]pyrimidin-4-one] | 64.8 | 58.9 |  |  | 68.3 | 2000 | 321 | 1580
Cc1nc(-c2cnc3n(c2=O)CCC(C)N3C)ccc1Oc1ccnc(-c2cnn(C)c2)c1 (centres unmarked) [Example 10, 8,9-dimethyl-3-(6-methyl-5-((2-(1-methyl-1H-pyrazol-4-yl)pyridin-4-yl)oxy)pyridin-2-yl)-6,7,8,9-tetrahydro-4H-pyrimido[1,2-a]pyrimidin-4-one] | 134 | 124 |  |  | 108 | > 18000 | > 18000 | > 18000
CCCN1CCCn2c1ncc(-c1ccc(Oc3ccnc(-c4cnn(C)c4)c3)c(C)n1)c2=O [Example 11, 3-(6-methyl-5-((2-(1-methyl-1H-pyrazol-4-yl)pyridin-4-yl)oxy)pyridin-2-yl)-9-propyl-6,7,8,9-tetrahydro-4H-pyrimido [1,2-a]pyrimidin-4-one] | 222 | 273 |  |  | 319 | > 6000 | > 2000 | > 6000
Cc1nc(-c2cnc3n(c2=O)CC[C@@H]2CCCN32)ccc1Oc1ccnc(-c2cnn(C)c2)c1 [Example 12] | 85.2 | 77.8 |  |  | 107 | > 18000 | 755 | > 2000

Reference: patent publication US11130762B2, “Azaaryl derivative, preparation method therefor, and application thereof for use in pharmacy” (Abbisko Therapeutics Co., Ltd., priority 2017, dated 2021)
